# According to patent publication US6914045B2, “Glycopeptide antibiotics” (Wyeth Holdings Corporation, priority 2001, dated 2005):
# Experiments:
# [1] = system: Escherichia coli; experiment: in vitro antibacterial evaluation, MIC by broth dilution; format: cell-based; details: 18 hours at 35° C.
# In short: (§1)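 MIC, the lowest antibiotic concentration preventing growth, was read across 64-0.06 μg/mL with 5×10^5 CFU/mL inoculum. Method followed NCCLS M7-A2 broth dilution using Mueller-Hinton II; Gram-positive strains covered recent methicillin-, penicillin- and/or vancomycin-resistant clinical isolates.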
# [2] = system: Streptococcus sp.; experiment: as above; format: cell-based; details: broth dilution, 18 hours at 35° C.
# In short: as §1
# [3] = system: Enterococcus sp.; experiment: as above; format: cell-based; details: broth dilution, 18 hours at 35° C.
# In short: as §1
# [4] = system: Staphylococcus sp.; experiment: as above; format: cell-based; details: broth dilution, 18 hours at 35° C.
# In short: as §1
# [5] = system: Staphylococcus aureus-SMITH (GC 4543); experiment: acute lethal infection in mice; format: in vivo; details: acute lethal infection, female CD-1 mice, intraperitoneal challenge, intravenous 30 min. after infection, 7 day survival
# Experimental: Methods for in Vivo Antibacterial Evaluation
# The therapeutic effects of glycopeptide antibiotics of Formula I are determined against acute lethal infections with S. aureus (strain Smith), a penicillin resistant strain of S. pneumoniae (strain GC 1894), and a vancomycin resistant strain of E. fecalis (strain GC 6189 and GC 2246). Female mice, CD-1 (Charles River Laboratories), 20+/−2 gm, are challenged by intraperitoneal injection of sufficient bacteria (suspended in /trypticase Soy Broth or hog gastric mucin) to kill non-treated controls within 24-48 hr. Antibacterial agents, contained in 0.2 mL of saline or 5% dextrose solution, are administered intravenously 30 min. after infection. Five mice are treated at each dose level. The 7 day survival ratios from 3 separate tests are pooled for calculation of median effective dose (ED50).
smiles,measurement,setting,value
"COc1ccc(CC2OCC3OC(OC4C(CO)OC(Oc5ccc(CC6NC(=O)C(C(C)c7ccccc7)NC(=O)CNC(=O)C(CO)NC(=O)C(C(O)C7CNC(=N)N7C7OC(CO)C(O)C(O)C7O)NC(=O)C(C(O)C7CNC(=N)N7)NC6=O)cc5)C(O)C4O)C(O)C(O)C3O2)cc1 (stereo not drawn) [Example 103, Cyco[glycyl-β-methylphenylalanyl-O-[4-O-[4,6-O-(4-methoxyphenethylidene)hexopyranosyl]-hexopyranosyl]tyrosyl-3-(2-iminoimidazolidin-4-yl)seryl-3-(3-hexopyranosyl-2-iminoimidazolidin-4-yl)serylseryl]]",MIC Escherichia coli (ATCC 25922),[1]; strain ATCC 25922,64 µg/mL
same,MIC Escherichia coli (GC 4559),[1]; strain GC 4559,64 µg/mL
same,MIC Escherichia coli (GC 4560),[1]; strain GC 4560,1 µg/mL
same,MIC Streptococcus agalactiae (GC 4564),[2]; Streptococcus agalactiae (GC 4564),0.5 µg/mL
same,MIC Streptococcus pneumoniae (ATCC 6301),[2]; Streptococcus pneumoniae (ATCC 6301),0.12 µg/mL
same,MIC Streptococcus pneumoniae (GC 1894),[2]; Streptococcus pneumoniae (GC 1894),0.12 µg/mL
same,MIC Streptococcus pneumoniae (GC 4565),[2]; Streptococcus pneumoniae (GC 4565),0.12 µg/mL
same,MIC Streptococcus pyogenes (GC 4563),[2]; Streptococcus pyogenes (GC 4563),0.25 µg/mL
same,MIC Streptococcus pneumoniae (ATCC 6301),[2]; strain ATCC 6301,0.12 µg/mL
same,MIC Streptococcus pneumoniae (GC 1894),[2]; strain GC 1894,0.12 µg/mL
same,MIC Streptococcus pyogenes (GC 4563),[2]; strain GC 4563,0.25 µg/mL
same,MIC Streptococcus agalactiae (GC 4564),[2]; strain GC 4564,0.5 µg/mL
same,MIC Streptococcus pneumoniae (GC 4565),[2]; strain GC 4565,0.12 µg/mL
same,MIC Enterococcus avium (GC 4558),[3]; Enterococcus avium (GC 4558),8 µg/mL
same,MIC Enterococcus faecalis (ATCC 29212),[3]; Enterococcus faecalis (ATCC 29212),4 µg/mL
same,MIC Enterococcus faecalis (GC 2242),[3]; Enterococcus faecalis (GC 2242),4 µg/mL
same,MIC Enterococcus faecalis (GC 2691),[3]; Enterococcus faecalis (GC 2691),8 µg/mL
same,MIC Enterococcus faecalis (GC 3059),[3]; Enterococcus faecalis (GC 3059),8 µg/mL
same,MIC Enterococcus faecalis (GC 4552),[3]; Enterococcus faecalis (GC 4552),8 µg/mL
same,MIC Enterococcus faecalis (GC 4553),[3]; Enterococcus faecalis (GC 4553),8 µg/mL
same,MIC Enterococcus faecalis (GC 4554),[3]; Enterococcus faecalis (GC 4554),8 µg/mL
same,MIC Enterococcus faecalis (GC 6189),[3]; Enterococcus faecalis (GC 6189),4 µg/mL
same,MIC Enterococcus faecium (GC 2243),[3]; Enterococcus faecium (GC 2243),4 µg/mL
same,MIC Enterococcus faecium (GC 4556),[3]; Enterococcus faecium (GC 4556),4 µg/mL
same,MIC Enterococcus faecium (GC 4557),[3]; Enterococcus faecium (GC 4557),2 µg/mL
same,MIC Enterococcus faecalis (ATCC 29212),[3]; strain ATCC 29212,4 µg/mL
same,MIC Enterococcus faecalis (GC 2242),[3]; strain GC 2242,4 µg/mL
same,MIC Enterococcus faecium (GC 2243),[3]; strain GC 2243,4 µg/mL
same,MIC Enterococcus faecalis (GC 2691),[3]; strain GC 2691,8 µg/mL
same,MIC Enterococcus faecalis (GC 3059),[3]; strain GC 3059,8 µg/mL
same,MIC Enterococcus faecalis (GC 4552),[3]; strain GC 4552,8 µg/mL
same,MIC Enterococcus faecalis (GC 4553),[3]; strain GC 4553,8 µg/mL
same,MIC Enterococcus faecalis (GC 4554),[3]; strain GC 4554,8 µg/mL
same,MIC Enterococcus faecium (GC 4556),[3]; strain GC 4556,4 µg/mL
same,MIC Enterococcus faecium (GC 4557),[3]; strain GC 4557,2 µg/mL
same,MIC Enterococcus avium (GC 4558),[3]; strain GC 4558,8 µg/mL
same,MIC Enterococcus faecalis (GC 6189),[3]; strain GC 6189,4 µg/mL
same,MIC Coagulase Negative Staphylococcus (GC 4547),[4],2 µg/mL
same,MIC Coagulase Negative Staphylococcus (GC 4548),[4],1 µg/mL
same,MIC Coagulase Negative Staphylococcus (GC 4549),[4],1 µg/mL
same,MIC Coagulase Negative Staphylococcus (GC 4551),[4],2 µg/mL
same,MIC Coagulase Negative Staphylococcus (GC 6257),[4],1 µg/mL
same,MIC Staphylococcus aureus (ATCC 29213),[4],2 µg/mL
same,MIC Staphylococcus aureus (GC 1131),[4],2 µg/mL
same,MIC Staphylococcus aureus (GC 3051),[4],1 µg/mL
same,MIC Staphylococcus aureus (GC 3053),[4],2 µg/mL
same,MIC Staphylococcus aureus (GC 4541),[4],2 µg/mL
same,MIC Staphylococcus aureus (GC 4542),[4],2 µg/mL
same,MIC Staphylococcus aureus (GC 4544),[4],2 µg/mL
same,MIC Staphylococcus aureus (GC 4545),[4],1 µg/mL
same,MIC Staphylococcus aureus-SMITH (GC 4543),[4],1 µg/mL
same,MIC Staphylococcus haemolyticus (GC 4546),[4],1 µg/mL
same,MIC Staphylococcus haemolyticus (GC 4546),[4]; strain GC 4546,1 µg/mL
same,MIC Coagulase Negative Staphylococcus (GC 4547),[4]; strain GC 4547,2 µg/mL
same,MIC Coagulase Negative Staphylococcus (GC 4548),[4]; strain GC 4548,1 µg/mL
same,MIC Coagulase Negative Staphylococcus (GC 4549),[4]; strain GC 4549,1 µg/mL
same,MIC Coagulase Negative Staphylococcus (GC 4551),[4]; strain GC 4551,2 µg/mL
same,MIC Coagulase Negative Staphylococcus (GC 6257),[4]; strain GC 6257,1 µg/mL
same,MIC Staphylococcus aureus-SMITH (GC 4543),[4]; strain SMITH GC 4543,1 µg/mL
same,MIC Staphylococcus aureus (ATCC 29213),[4]; strain ATCC 29213,2 µg/mL
same,MIC Staphylococcus aureus (GC 1131),[4]; strain GC 1131,2 µg/mL
same,MIC Staphylococcus aureus (GC 3051),[4]; strain GC 3051,1 µg/mL
same,MIC Staphylococcus aureus (GC 3053),[4]; strain GC 3053,2 µg/mL
same,MIC Staphylococcus aureus (GC 4541),[4]; strain GC 4541,2 µg/mL
same,MIC Staphylococcus aureus (GC 4542),[4]; strain GC 4542,2 µg/mL
same,MIC Staphylococcus aureus (GC 4544),[4]; strain GC 4544,2 µg/mL
same,MIC Staphylococcus aureus (GC 4545),[4]; strain GC 4545,1 µg/mL
same,"median effective dose (ED50), Staphylococcus aureus-SMITH (GC 4543)",[5],0.28 mg/kg
